Experimental findings from EP0487095B1, “Pyridyl derivatives, medicines containing these compounds and processes for their preparation” (Dr. Karl Thomae GmbH, priority 1990, dated 1992) are described below.

Experiment [1] concerns the target T1, Thromboxansynthetase (Homo sapiens, UniProt P24557).
T1 construct: Aliquots der erhaltenen Plättchensuspension werden mit der Testsubstanz bzw; Lösungsmittel als Kontrolle 10 Minuten bei Raumtemperatur inkubiert; endogenous in cells; host or cells: gel-filtered human platelets from venous blood
T1 sequence (P24557 1-533): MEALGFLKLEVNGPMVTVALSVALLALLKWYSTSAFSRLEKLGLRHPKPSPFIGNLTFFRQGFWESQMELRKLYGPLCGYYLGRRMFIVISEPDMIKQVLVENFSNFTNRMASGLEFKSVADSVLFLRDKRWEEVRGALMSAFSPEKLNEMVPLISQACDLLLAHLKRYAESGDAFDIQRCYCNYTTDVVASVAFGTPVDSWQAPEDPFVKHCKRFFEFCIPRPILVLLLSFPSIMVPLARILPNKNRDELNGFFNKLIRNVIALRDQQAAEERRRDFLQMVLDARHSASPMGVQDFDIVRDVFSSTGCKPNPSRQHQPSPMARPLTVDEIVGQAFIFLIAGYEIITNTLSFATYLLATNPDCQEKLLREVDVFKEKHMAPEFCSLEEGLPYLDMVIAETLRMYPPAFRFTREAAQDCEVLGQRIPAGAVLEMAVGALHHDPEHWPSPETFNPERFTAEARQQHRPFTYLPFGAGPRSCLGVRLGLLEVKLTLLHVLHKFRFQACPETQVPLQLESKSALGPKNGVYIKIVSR
The experiment can be described thus: Inhibition of thromboxane synthetase (TXB2 formation from 14C-arachidonic acid in platelet suspension). The class given is cell-based. The conditions noted are these: 10 min preincubation at room temperature, read-out: Hemmung der Thromboxansynthetase IC₅₀. The procedure:
3. Bestimmung der Hemmwirkung auf die Thromboxansynthetase
Venöses Humanblut wird mit 13 mM Na3-Citrat antikoaguliert und 10 Minuten bei 170 x g zentrifugiert. Das überstehende plättchenreiche Plasma wird zur Entfernung der Plasmaproteine über eine Sepharose-2B-Säule gegeben. Aliquots der erhaltenen Plättchensuspension werden mit der Testsubstanz bzw. Lösungsmittel als Kontrolle 10 Minuten bei Raumtemperatur inkubiert und nach Zugabe 14C-markierter Arachidonsäure die Inkubation weitere 10 Minuten fortgesetzt. Nach Abstoppen mit 50 µl Zitronensäure wird 3 x mit 500 µl Essigester extrahiert und die vereinigten Extrakte mit Stickstoff abgeblasen. Der Rückstand wird in Essigester aufgenommen, auf DC-Folie aufgetragen und mit Chloroform:Methanol:Eisessig:Wasser (90:8:1:0,8, v/v/v/v) getrennt. Die getrockneten DC-Folien werden 3 Tage auf Röntgenfilm gelegt, die Autoradiogramme entwickelt und mit ihrer Hilfe die aktiven Zonen auf der Folie markiert. Nach Ausschneiden wird die Aktivität im Szintillationszähler bestimmt und die Hemmung der TXB2-Bildung berechnet. Die IC₅₀ wird durch lineare Interpolation bestimmt.

Experiment [2] concerns the target T2, Thromboxan (Homo sapiens, UniProt P21731).
T2 construct: Aliquote der erhaltenen Plättchensuspension werden mit der Testsubstanz, dem Liganden (3H-markiert) und einem Marker (14C-markiert) 60 Minuten bei Raumtemperatur inkubiert; endogenous in cells; host or cells: gel-filtered human platelets from venous blood
T2 sequence (P21731 1-343): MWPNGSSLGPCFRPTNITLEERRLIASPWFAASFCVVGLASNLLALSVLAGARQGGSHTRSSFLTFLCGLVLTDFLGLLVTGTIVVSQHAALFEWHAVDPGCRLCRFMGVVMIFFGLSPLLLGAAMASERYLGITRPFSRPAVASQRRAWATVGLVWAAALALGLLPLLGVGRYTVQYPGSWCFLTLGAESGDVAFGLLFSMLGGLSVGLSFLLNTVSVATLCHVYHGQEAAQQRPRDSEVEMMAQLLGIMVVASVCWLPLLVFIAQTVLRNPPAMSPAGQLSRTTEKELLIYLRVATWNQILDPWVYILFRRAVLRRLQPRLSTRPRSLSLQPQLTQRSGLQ
Put plainly: Thromboxane-antagonistic effect (displacement of 3H-labelled ligand from platelet suspension). The class given is binding. The conditions noted are these: 60 min at room temperature, read-out: Thromboxanantagonistische Wirkung IC₅₀. As to the method:
2. Thromboxanantagonistische Wirkung
Venöses Humanblut wird mit 13 mM Na3-Citrat antikoaguliert und 10 Minuten bei 170 x g zentrifugiert. Das überstehende plättchenreiche Plasma wird zur Entfernung der Plasmaproteine über eine Sepharose-2B-Säule gegeben. Aliquote der erhaltenen Plättchensuspension werden mit der Testsubstanz, dem Liganden (3H-markiert) und einem Marker (14C-markiert) 60 Minuten bei Raumtemperatur inkubiert und danach 20 Sekunden bei 10 000 x g abzentrifugiert. Der Überstand wird abgezogen und das Pellet in NaOH gelöst. Die 3H-Aktivität im Überstand entspricht dem freien Liganden, 14C ergibt die Konzentration des Markers. 3H im Pellet entspricht dem gebundenen Liganden, 14C wird zur Korrektur für Ligand im Extrazellulärraum verwendet. Aus den Bindungswerten für verschiedene Konzentrationen der Testsubstanz wird nach Iteration die Verdrängungskurve ermittelt und die IC₅₀ bestimmt.
For orientation: In a radioligand displacement assay an active substance lowers the binding of a labelled ligand.

Experiment [3] has as its system Thrombozytenaggregation. Put plainly: Collagen-induced platelet aggregation (Born and Cross) in platelet-rich plasma. The class given is cell-based. Particulars: Homo sapiens; platelet-rich plasma of healthy subjects, 10 min preincubation at 37°C, 50% change of optical density; read-out: Hemmung der collagen-induzierten Aggregation EC₅₀. An excerpt: 1. Antithrombotische Wirkung
Die Thrombozytenaggregation wird nach der Methode von Born und Cross (J. Physiol. 170, 397 (1964)) in plättchenreichem Plasma gesunder Versuchspersonen gemessen. Zur Gerinnungshemmung wird das Blut mit Natriumcitrat 3,14 % im Volumenverhältnis 1:10 versetzt.
Collagen-induzierte Aggregation
Der Verlauf der Abnahme der optischen Dichte der Plättchensuspension wird nach Zugabe der aggregationsauslösenden Substanz photometrisch gemessen und registriert. Aus dem Neigungswinkel der Dichtekurve wird auf die Aggregationsgeschwindigkeit geschlossen. Der Punkt der Kurve, bei dem die größte Lichtdurchlässigkeit vorliegt, dient zur Berechnung der "optical density".
Die Collagen-Menge wird möglichst gering gewählt, aber doch so, daß sich eine irreversibel verlaufende Reaktionskurve ergibt. Verwendet wird das handelsübliche Collagen der Firma Hormonchemie, München. Vor der Collagen-Zugabe wird das Plasma jeweils 10 Minuten mit der Substanz bei 37°C inkubiert.
Aus den erhaltenen Meßzahlen wird graphisch eine EC₅₀ bestimmt, die sich auf eine 50%ige Änderung der "optical density" im Sinne einer Aggregationshemmung bezieht.

Turning to `O=C(O)CCC/C=C(/c1cccnc1)c1cccc(NC(=S)Nc2ccc(Cl)cc2)c1` [C, 5E-6-[3-(3-(4-Chlorphenyl)-thioureido)-phenyl]-6-(3-pyridyl)-hex-5-ensäure], the IC50 in experiment [1] is 32 nM; in experiment [2], 12 nM. Moreover, in experiment [3], the EC50 worked out at 800 nM.

For the compound `CN(C(=S)Nc1ccc(Cl)cc1Cl)c1cccc(/C(=C\CCCC(=O)O)c2cccnc2)c1` [D, 5E-6-[3-(3-(2,4-Dichlorphenyl)-1-methylthioureido)-phenyl]-6-(3-pyridyl)-hex-5-ensäure], the IC50 in experiment [1] worked out at 90 nM; in experiment [2], 17 nM. Moreover, the EC50 in experiment [3] was determined as 1200 nM.

With `O=C(O)CCC/C=C(/c1cccnc1)c1cccc(NC(=O)CCc2ccc(Cl)cc2)c1` [B, 5E-6-[3-(3-(4-Chlorphenyl)-propionylamino)-phenyl]-6-(3-pyridyl)-hex-5-ensäure], the figures for the IC50 in experiment [1] and in experiment [2] were 4 nM and 8 nM, respectively. Moreover, in experiment [3], the EC50 is 2200 nM.

With `O=C(O)CCCC=C(c1ccc(NC(=O)C2CC2c2ccc(Cl)cc2)cc1)c1cccnc1` (single isomer, unassigned; (-)) [A, (-)-5E-6-[4-(Z-2-(4-Chlorphenyl)-cyclopropyl-1-carboxamido)-phenyl]-6-(3-pyridyl)-hex-5-ensäure], the IC50 in experiment [1] and in experiment [2] was 4 nM in each case. The EC50 in experiment [3] came to 500 nM.
